Data reported in paper PMC6393897, “An LC-MS/MS Method for Simultaneous Determination of the Toxic and Active Components of Cortex Periplocae in Rat Plasma and Application to a Pharmacokinetic Study” (International Journal of Analytical Chemistry, 2019).
Read-outs that look alike come from different tables or passages of the source.

Columns and labels:
[1] = Pharmacokinetic study in rats after oral administration of cortex periplocae extract (plasma LC-MS/MS); format: in vivo, rat; conditions: oral cortex periplocae extract 18.9 g/kg; for AUC: 0-48 h, read-out: AUC(0-tn); for MRT: read-out: MRT(0-tn)
Experimental: The pharmacokinetic study was conducted in accordance with the Guidelines for the Care and Use of Laboratory Animals and approved by the Animal Ethics Committee of Tianjin University of Traditional Chinese Medicine. […] Appropriate amount of cortex periplocae extract was suspended in 0.5% carboxymethyl cellulose sodium salt aqueous solution (CMC-Na) and the volume of oral administration was 1 mL/100g. […] The rats were anesthetized with ethyl ether before each withdrawal. […] For this repeat bleeds at short intervals, fluid replacement (appropriate volume of physiological saline) was required. The blood samples were immediately centrifuged 10 min at 7000 rpm. The obtained plasma was transferred into another centrifuge tube and stored at -80°C for analysis.
For the maximum drug concentration in plasma (Cmax) and the time to reach maximum drug concentration (Tmax), the values could be directly obtained. The other key parameters such as the area under the plasma concentration–time curve (AUC), elimination half-life (t1/2), and mean residence time (MRT) were calculated with DAS (Drug and Statistics 1.0, Medical College of Wannan, China) using non-compartmental model.

[2] = Stability of analytes in rat plasma QC samples (autosampler, room temperature, freeze/thaw, -80°C); format: in vitro ADME; conditions: for Freeze thaw cycles stability, Accuracy: three freeze (-80°C)/thaw cycles
Experimental: (§1) The QC samples (n = 6) at three concentrations (low, medium, and high) were also used to assess the stabilities of all analytes. The QC samples under autosampler condition for 24 h were determined to evaluate the autosampler 24 h stability. For the freeze/thaw cycle stability, the QC samples stored at -80°C were subjected to three freeze to thaw (at room temperature) cycles. QC samples stored at room temperature for 24 h and -80°C for 1 month were used to evaluate the short-term stability and the long-term stability. The mixed analytes solution (100 ng/mL), which was obtained by diluting the stock solution stored for two weeks at 4°C, was used to evaluate the stability of stock solution. The stability of analytes working solution was also assessed by storing solutions 2 weeks at 4°C. The stabilities of stock and working solutions of ISs were determined by the same procedure as that for the analytes.

[3] = Stability of stock and working solutions stored 2 weeks at 4°C; format: physicochemical
Experimental: as §1, with “The QC samples under autosampler condition for 24 h were determined to evaluate the autosampler 24 h stability.” left out, “QC samples stored at room temperature for 24 h and -80°C for 1 month were used to evaluate the short-term stability and the long-term stability.” left out

[4] = n = 6, high level (1200 ng/mL isovanillin, periplocin; 240 ng/mL others)
[5] = n = 6, low level (7.2 ng/mL isovanillin, periplocin; 1.44 ng/mL others)
[6] = n = 6, medium level (120 ng/mL isovanillin, periplocin; 24 ng/mL others)
[7] = 2 weeks at 4°C, high level (1200 ng/mL isovanillin, periplocin; 240 ng/mL scopoletin, periplogenin, periplocymarin)
[8] = 2 weeks at 4°C, low level (7.2 ng/mL isovanillin, periplocin; 1.44 ng/mL scopoletin, periplogenin, periplocymarin)
[9] = 2 weeks at 4°C, medium level (120 ng/mL isovanillin, periplocin; 24 ng/mL scopoletin, periplogenin, periplocymarin)
[10] = male Sprague-Dawley rats, plasma, n = 6, mean ± SD
[11] = male, Sprague-Dawley, rat, in vivo, po, 18.9 g/kg, male Sprague-Dawley rats, plasma, n = 6, mean ± SD
[12] = rat, in vivo, male Sprague-Dawley rats, plasma, n = 6, mean ± SD
[13] = rat, in vivo, male Sprague-Dawley rats, plasma, n = 6, mean ± SD, read-out: Cmax
[14] = rat, male Sprague-Dawley rats, plasma, n = 6, mean ± SD

Row | Compound | -80°C for 1 month stability, Accuracy [2, 4] [%] | Autosampler for 24 hours stability, Accuracy [2, 4] [%] | Room temperature for 24 h stability, Accuracy [2, 4] [%] | -80°C for 1 month stability, Accuracy [2, 5] [%] | Autosampler for 24 hours stability, Accuracy [2, 5] [%] | Room temperature for 24 h stability, Accuracy [2, 5] [%] | -80°C for 1 month stability, Accuracy [2, 6] [%] | Autosampler for 24 hours stability, Accuracy [2, 6] [%] | Room temperature for 24 h stability, Accuracy [2, 6] [%] | Freeze thaw cycles stability, Accuracy [2, 4] [%] | Freeze thaw cycles stability, Accuracy [2, 5] [%] | Freeze thaw cycles stability, Accuracy [2, 6] [%] | Working solution stability, Accuracy [3, 7] [%] | Working solution stability, Accuracy [3, 8] [%] | Working solution stability, Accuracy [3, 9] [%] | AUC [1, 12] [ng·h/mL] | other results
1 | COc1ccc(C=O)cc1O [isovanillin] | 99.4 | 114 | 103 | 109 | 100 | 107 | 100 | 112 | 106 | 107 | 101 | 98.6 | 85.0 | 104 | 96.1 | – | Detection in rat plasma after oral administration ([1]; LLOQ 2.4 ng/mL): not detected
2 | COC1CC(OC2CCC3(C)C4CCC5(C)C(C6=CC(=O)OC6)CCC5(O)C4CCC3(O)C2)OC(C)C1OC1OC(CO)C(O)C(O)C1O (stereo not shown) [periplocin] | 92.9 | 113 | 96.4 | 115 | 113 | 111 | 115 | 109 | 116 | 113 | 93.7 | 114 | 94.4 | 103 | 98.9 | 83 ± 58.6 | t1/2 [1, 10]: 1.08 ± 0.98 h; half-life [1, 11]: 1.21 ± 1.11 h; AUC(0-inf) [1, 12]: 105 ± 70.9 ng·h/mL; Tmax [1, 12]: 0.31 ± 0.16 h; Cmax [1, 13]: 91.4 ± 53 ng/mL; MRT [1, 12]: 1.21 ± 1.11 h
3 | CO[C@H]1C[C@H](O[C@H]2CC[C@]3(C)[C@H]4CC[C@]5(C)[C@@H](C6=CC(=O)OC6)CC[C@]5(O)[C@@H]4CC[C@]3(O)C2)O[C@H](C)[C@H]1O [periplocymarin] | 102 | 102 | 98.5 | 106 | 101 | 107 | 102 | 108 | 102 | 103 | 113 | 113 | 84.2 | 110 | 95.1 | 1690 ± 1170 | half-life [1, 11]: 30.2 ± 11.8 h; Cmax ratio periplocymarin versus periplogenin ([1]; rat plasma): 9 times; AUC(0-inf) [1, 12]: 2260 ± 1280 ng·h/mL; Tmax [1, 12]: 5.49 ± 4.34 h; Cmax [1, 13]: 126 ± 96.4 ng/mL; MRT [1, 12]: 17.1 ± 2.48 h
4 | C[C@]12CC[C@H](O)C[C@@]1(O)CC[C@@H]1[C@@H]2CC[C@]2(C)[C@@H](C3=CC(=O)OC3)CC[C@]12O [periplogenin] | 98.7 | 104 | 101 | 109 | 108 | 92.6 | 108 | 110 | 115 | 92.8 | 116 | 112 | 81.5 | 111 | 99.4 | – | –
5 | O=Cc1ccc(O)c(O)c1 [protocatechuic aldehyde, reference compound] | – | – | – | – | – | – | – | – | – | – | – | – | – | – | – | – | Working solution stability of ISs, accuracy ([3]; IS working solutions, 2 weeks at 4°C): 101%
6 | COc1cc2ccc(=O)oc2cc1O [scopoletin] | – | – | 103 | – | – | – | – | – | – | – | – | – | – | – | – | 103 ± 76.4 | Cmax [1, 10]: 177.8 ± 133.85 ng/mL; Cmax ([1]; male, Sprague-Dawley, rat, plasma, po, 18.9 g/kg, male Sprague-Dawley rats, plasma, n = 6, mean ± SD, read-out: Cmax): 178 ± 134 ng/mL; AUC(0-inf) [1, 14]: 206 ± 153 ng·h/mL; Tmax [1, 14]: 0.1 ± 0.03 h; half-life [1, 14]: 0.19 ± 0.08 h; MRT [1, 14]: 11.8 ± 6.6 h
7 | CC(=O)CC(c1ccccc1)c1c(O)c2ccccc2oc1=O (stereo not shown) [warfarin, reference compound] | – | – | – | – | – | – | – | – | – | – | – | – | – | – | – | – | Working solution stability of ISs, accuracy ([3]; 2 weeks): 109%
